Reference: paper PMC10786919, “Design-rules for stapled peptides with in vivo activity and their application to Mdm2/X antagonists” (Nature Communications, 2024)
≈ marks a conversion by molar mass, not a printed value. Read-outs that look alike come from different tables or passages of the source. Positions of bridges follow the written chain, without caps; N, C: chain ends. Non-standard residues stand in square brackets, D forms with d. Residues, ends and D or L forms follow the SMILES beside them. Phe(4-SO3H) = N[C@@H](Cc1ccc(S(=O)(=O)O)cc1)C(=O)O; Lys(N3) = [N-]=[N+]=NCCCC[C@H](N)C(=O)O; R8 = C=CCCCCCC[C@@](C)(N)C(=O)O; Cba = N[C@@H](CC1CCC1)C(=O)O; S5 = C=CCCC[C@](C)(N)C(=O)O; βAla = NCCC(=O)O

Tests used:
[1] = Lactate dehydrogenase (LDH) release assay; assay type: cell-based
Summary of the method: (§1)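 A p53 β-lactamase reporter HCT116 line, 8000 cells per well, is exposed to test compounds at 0.5% final DMSO and scored for LDH leakage.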

[2] = tested on: HCT116 cells; experiment: Lactate dehydrogenase (LDH) release assay; assay type: cell-based
Summary of the method: as §1

[3] = Solubility assay (kinetic solubility, PBS pH 7); assay type: physicochemical; settings: pH 7, aqueous buffer, kinetic from dmso stock, pH 7, PBS; read-out: Solubility
Summary of the method: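 Reference standards were made by diluting the 10 mM stock to 100 µM in acetonitrile:methanol:DMSO 10:80:10. Solubility in µM was calculated as the sample peak area divided by the standard peak area, multiplied by the standard concentration.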

[4] = Nanoclick permeability assay
Source text: Further, there have been several literature reports[18]–[20] that highlight that the combination of hydrophobic character and positive charge can result in mast cell degranulation (MCD), a potentially fatal condition[18]–[20]. […] The NanoClick assay[22] determines permeability of azide-labeled peptides by combining intracellular copper-free click chemistry with NanoBRET technology. Specifically, if an azido-peptide achieves cytosolic exposure, it will react with a cyclooctyne-decorated Halotag construct that is fused with nanoluciferase. This reaction blocks the click labelling of a subsequently added azido-labeled acceptor dye, thus decreasing the NanoBRET signal in a manner that is target-binding agnostic.
This assay was previously described in detail. The assay was performed in 384-well white assay plates (PerkinElmer CUSG03874) using assay-ready frozen cells that had been transiently transfected with the NanoLuc-HaloTag vector that were thawed at plated in complete media at a density of 6000 cells/ well and incubated at 37 °C 5% CO2 overnight. DIBAC-CA was diluted in assay buffer (OptiMem without phenol red + 1% FBS) and added to cells at a final concentration of 3 μM and incubated at 37 °C 5% CO2 for 1 h. Cells were subsequently centrifuged using a BlueWasher instrument (Blue Cat Bio) to remove the DIBAC-CA solution and washed two times with HBSS (Ca2 + , Mg2 + ). A volume of 30 μL of assay buffer was added back to cell plates. Peptides were serially diluted 4-fold in DMSO with a Hamilton Star apparatus and then delivered into assay plates with an acoustic liquid handler Labcyte ECHO (300 nl, 1% DMSO in-well concentration). After incubating cells with peptide for the desired time (4 or 18 h), the HaloTag ligand, NanoBret618-azide, was added to each well at a final concentration of 10 μM. […] Following addition of NanoBRET Nano-Glo Substrate, donor emission (450 nm) and acceptor emission (610 nm) were measured using an Envision instrument (PerkinElmer).

[5] = Experimental LogD (partition coefficient); settings: not stated, Partition Coeff LogD
[6] = 0% FBS 4Hr, read-out: LDH: Cytotoxicity assay: EC50
[7] = Nanoclick permeability assay EC50
[8] = 0% FBS 4Hr, read-out: LDH: Cytotoxicity assay EC50
[9] = 10% FBS 16Hr, read-out: LDH: Cytotoxicity assay EC50

Row | SMILES | EC50 [1, 6] [µM] | EC50 ([1]; 10% FBS 16Hr, read-out: LDH: Cytotoxicity assay: EC50) [µM] | LDH: Cytotoxicity assay: % Effect ([2]; 0% FBS 4Hr) [%] | LDH: Cytotoxicity assay: % Effect ([2]; 10% FBS 16Hr) [%] | solubility kinetic [3] [µM] | cell entry EC50 [4] [µM] | logD [5] | EC50 ([1]; LDH: Cytotoxicity assay: EC50) [µM] | EC50 [2] [µM] | cell entry EC50 [4, 7] [µM] | LDH: Cytotoxicity assay: % Effect [2] [%] | EC50 [1, 8] [µM] | EC50 [1, 9] [µM] | LDH: Cytotoxicity assay % Effect ([2]; 0% FBS 4Hr) [%] | LDH: Cytotoxicity assay % Effect ([2]; 10% FBS 16Hr) [%]
1 | CC(=O)N[C@@H](CCCCN=[N+]=[N-])C(=O)NCCC(=O)N[C@@H](CC(C)C)C(=O)N[C@H](C(=O)N[C@@H](Cc1ccccc1)C(=O)N[C@]1(C)CCCCCCC=CCCC[C@@](C)(C(=O)NCC(=O)NCC(=O)NCC(=O)NCC(=O)NCC(=O)NCC(N)=O)NC(=O)[C@H](CC2CCC2)NC(=O)[C@H](CCC(N)=O)NC(=O)[C@H](C)NC(=O)[C@H](Cc2c[nH]c3ccccc23)NC(=O)[C@H](Cc2ccc(O)cc2)NC(=O)[C@H](CCC(=O)O)NC1=O)[C@@H](C)O [MP-289] (Ac-[Lys(N3)][βAla]LTF[R8]EYWAQ[Cba][S5]GGGGGG-NH2; staple 6-13) | > 50.7 | > 50.7 | -4.216 | 3.579 | 142 (≈ 296 µg/mL) | 0.615 | 2.58 |  |  |  |  |  |  |  | 
2 | CC(=O)N[C@@H](CCCCN=[N+]=[N-])C(=O)NCCC(=O)N[C@@H](CC(C)C)C(=O)N[C@H](C(=O)N[C@@H](Cc1ccccc1)C(=O)N[C@]1(C)CCCCCCC=CCCC[C@@](C)(C(=O)N[C@@H](CCC(=O)O)C(=O)N[C@@H](CC(N)=O)C(=O)N[C@@H](Cc2ccccc2)C(N)=O)NC(=O)[C@H](CC2CCC2)NC(=O)[C@H](CCC(N)=O)NC(=O)[C@H](C)NC(=O)[C@H](Cc2c[nH]c3ccccc23)NC(=O)[C@H](Cc2ccc(O)cc2)NC(=O)[C@H](CCC(=O)O)NC1=O)[C@@H](C)O [MP-328] (Ac-[Lys(N3)][βAla]LTF[R8]EYWAQ[Cba][S5]ENF-NH2; staple 6-13) | > 50.6 |  | -1.88 |  | 108 (≈ 230 µg/mL) | 0.0663 | 2.65 |  |  |  |  |  |  |  | 
3 | CC(C)C[C@H](NC(=O)CCNC(=O)[C@@H](N)CCCCN=[N+]=[N-])C(=O)N[C@H](C(=O)N[C@@H](Cc1ccccc1)C(=O)N[C@]1(C)CCCCCCC=CCCC[C@@](C)(C(N)=O)NC(=O)[C@H](CC2CCC2)NC(=O)[C@H](CC(C)C)NC(=O)[C@H](CCC(N)=O)NC(=O)[C@H](Cc2c[nH]c3ccccc23)NC(=O)[C@H](Cc2ccc(O)cc2)NC(=O)[C@H](CCC(=O)O)NC1=O)[C@@H](C)O [MP-329] (H-[Lys(N3)][βAla]LTF[R8]EYWQL[Cba][S5]-NH2; staple 6-13) |  |  |  |  | 5 (≈ 8.71 µg/mL) |  | 2.71 | > 50.7 | 50.5 | 2.69 |  |  |  |  | 
4 | CC(=O)N[C@@H](CCCCN=[N+]=[N-])C(=O)NCCC(=O)N[C@@H](CC(=O)O)C(=O)N[C@H](C(=O)N[C@@H](Cc1ccccc1)C(=O)N[C@]1(C)CCCCCCC=CCCC[C@@](C)(C(=O)N[C@@H](CO)C(=O)N[C@@H](C)C(=O)N[C@@H](C)C(N)=O)NC(=O)[C@H](CC2CCC2)NC(=O)[C@H](CCC(N)=O)NC(=O)[C@H](CC(=O)O)NC(=O)[C@H](Cc2c[nH]c3ccccc23)NC(=O)[C@H](Cc2ccc(O)cc2)NC(=O)[C@H](CC(=O)O)NC1=O)[C@@H](C)O [MP-495, azide-ATSP-7041 (L1D, E5D, A8D)] (Ac-[Lys(N3)][βAla]DTF[R8]DYWDQ[Cba][S5]SAA-NH2; staple 6-13) | > 50.6 |  | 1.328 |  | 78.7 (≈ 158 µg/mL) | 0.327 | 1.93 |  |  |  |  |  |  |  | 
5 | CC(=O)N[C@@H](CCC(=O)O)C(=O)N[C@@H](CCC(=O)O)C(=O)N[C@@H](CCC(=O)O)C(=O)N[C@@H](CCCCN=[N+]=[N-])C(=O)NCCC(=O)N[C@@H](CC(C)C)C(=O)N[C@H](C(=O)N[C@@H](Cc1ccccc1)C(=O)N[C@]1(C)CCCCCCC=CCCC[C@@](C)(C(=O)N[C@@H](CO)C(=O)N[C@@H](C)C(=O)N[C@@H](C)C(N)=O)NC(=O)[C@H](CC2CCC2)NC(=O)[C@H](CCC(N)=O)NC(=O)[C@H](C)NC(=O)[C@H](Cc2c[nH]c3ccccc23)NC(=O)[C@H](Cc2ccc(O)cc2)NC(=O)[C@H](CCC(=O)O)NC1=O)[C@@H](C)O [MP-617] |  |  |  |  | 81.5 (≈ 192 µg/mL) |  | 2.09 | > 50.6 |  | 0.842 | -1.09 |  |  |  | 
6 | CC(=O)N[C@@H](CCC(=O)O)C(=O)N[C@@H](CCC(=O)O)C(=O)N[C@@H](CCC(=O)O)C(=O)N[C@@H](CCCCN=[N+]=[N-])C(=O)NCCC(=O)N[C@@H](CC(C)C)C(=O)N[C@H](C(=O)N[C@@H](Cc1ccccc1)C(=O)N[C@]1(C)CCCCCCC=CCCC[C@@](C)(C(=O)N[C@@H](CCC(=O)O)C(=O)N[C@@H](CCC(=O)O)C(=O)N[C@@H](CCC(=O)O)C(N)=O)NC(=O)[C@H](CC2CCC2)NC(=O)[C@H](CCC(N)=O)NC(=O)[C@H](C)NC(=O)[C@H](Cc2c[nH]c3ccccc23)NC(=O)[C@H](Cc2ccc(O)cc2)NC(=O)[C@H](CCC(=O)O)NC1=O)[C@@H](C)O [MP-764] (Ac-EEE[Lys(N3)][βAla]LTF[R8]EYWAQ[Cba][S5]EEE-NH2; staple 9-16) |  |  |  |  | 22 (≈ 55.3 µg/mL) |  | 1.26 | > 50.6 |  | 2.67 | -1.252 |  |  |  | 
7 | CC(=O)N[C@@H](CCCCN=[N+]=[N-])C(=O)NCCC(=O)N[C@@H](CC(C)C)C(=O)N[C@H](C(=O)N[C@@H](Cc1ccccc1)C(=O)N[C@]1(C)CCCCCCC=CCCC[C@@](C)(C(=O)N[C@@H](C)C(=O)N[C@@H](C)C(=O)N[C@@H](C)C(=O)N[C@@H](CCC(=O)O)C(=O)N[C@@H](C)C(=O)N[C@H](C)C(N)=O)NC(=O)[C@H](CC2CCC2)NC(=O)[C@H](CCC(N)=O)NC(=O)[C@H](C)NC(=O)[C@H](Cc2c[nH]c3ccccc23)NC(=O)[C@H](Cc2ccc(O)cc2)NC(=O)[C@H](CCC(=O)O)NC1=O)[C@@H](C)O [MP-835] (Ac-[Lys(N3)][βAla]LTF[R8]EYWAQ[Cba][S5]AAAEA[dA]-NH2; staple 6-13) |  |  |  |  | 162 (≈ 361 µg/mL) | 0.537 | 2.16 |  |  |  |  | > 50.7 | > 50.7 | 3.786 | 22.41
8 | CC(=O)N[C@@H](CCCCN=[N+]=[N-])C(=O)NCCC(=O)N[C@@H](CC(C)C)C(=O)N[C@H](C(=O)N[C@@H](Cc1ccccc1)C(=O)N[C@]1(C)CCCCCCC=CCCC[C@@](C)(C(=O)N[C@@H](C)C(=O)N[C@@H](CCC(N)=O)C(=O)N[C@@H](C)C(=O)N[C@@H](C)C(=O)N[C@@H](C)C(=O)N[C@H](C)C(N)=O)NC(=O)[C@H](CC2CCC2)NC(=O)[C@H](CCC(N)=O)NC(=O)[C@H](C)NC(=O)[C@H](Cc2c[nH]c3ccccc23)NC(=O)[C@H](Cc2ccc(O)cc2)NC(=O)[C@H](CCC(=O)O)NC1=O)[C@@H](C)O [MP-966] (Ac-[Lys(N3)][βAla]LTF[R8]EYWAQ[Cba][S5]AQAAA[dA]-NH2; staple 6-13) |  |  |  |  | 160 (≈ 356 µg/mL) | 6.1 | 3.07 |  |  |  |  | > 50.7 | > 50.7 | -1.602 | 12.04
9 | CC(=O)N[C@@H](CCCCN=[N+]=[N-])C(=O)NCCC(=O)N[C@@H](Cc1ccc(S(=O)(=O)O)cc1)C(=O)N[C@H](C(=O)N[C@@H](Cc1ccccc1)C(=O)N[C@]1(C)CCCCCCC=CCCC[C@@](C)(C(=O)N[C@@H](CO)C(=O)N[C@@H](C)C(=O)N[C@@H](C)C(N)=O)NC(=O)[C@H](CC2CCC2)NC(=O)[C@H](CCC(N)=O)NC(=O)[C@H](C)NC(=O)[C@H](Cc2c[nH]c3ccccc23)NC(=O)[C@H](Cc2ccc(O)cc2)NC(=O)[C@H](CCC(=O)O)NC1=O)[C@@H](C)O [MP-7668] (Ac-[Lys(N3)][βAla][Phe(4-SO3H)]TF[R8]EYWAQ[Cba][S5]SAA-NH2; staple 6-13) |  |  |  |  | 28 (≈ 58.4 µg/mL) |  | 2.31 | > 50.6 |  | 0.406 | 2.173 |  |  |  | 
